Source: the supplement of paper PMC4862054

Tests used:
Test in all cases: normalised response (% of control), CellTiter-Glo; higher = more viable cells (100 = DMSO, 0 = benzethonium chloride kill control)
Conditions in all cases: incubation time: 72 h
HDQ-P1 = system: HDQ-P1
In short: (§1)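 Normalised signals at single concentrations make up the values. They come from breast cancer cell lines seeded (20 µl suspension) into 384-well plates with compound at 5 concentrations in 10-fold steps over a compound-specific 10,000-fold range, incubated 72 h, and read for CellTox Green fluorescence then CellTiter-Glo luminescence. Each plate was normalised to 0.1 % DMSO (100) and a positive kill control (0).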

MDA-MB-436 = system: MDA-MB-436
In short: as §1

MFM-223 = system: MFM-223
In short: as §1

BT-474 = system: BT-474
In short: as §1

CAL-85-1 = system: CAL-85-1
In short: as §1

BT-549 = system: BT-549
In short: as §1

CAL-148 = system: CAL-148
In short: as §1

MDA-MB-453 = system: MDA-MB-453
In short: as §1

MDA-MB-231 = system: MDA-MB-231
In short: as §1

HCC1599 = system: HCC1599
In short: as §1

CAL-120 = system: CAL-120
In short: as §1

CAL-51 = system: CAL-51
In short: as §1

MDA-MB-468 = system: MDA-MB-468
In short: as §1

MCF-10A = system: MCF-10A
In short: as §1

DU-4475 = system: DU-4475
In short: as §1

HCC1937 = system: HCC1937
In short: as §1

SK-BR-3 = system: SK-BR-3
In short: as §1

Hs578T = system: Hs578T
In short: as §1

HCC1143 = system: HCC1143
In short: as §1

Row | Compound | normalised response (HDQ-P1) | normalised response (MDA-MB-436) | normalised response (MFM-223) | normalised response (BT-474) | normalised response (CAL-85-1) | normalised response (BT-549) | normalised response (CAL-148) | normalised response (MDA-MB-453) | normalised response (MDA-MB-231) | normalised response (HCC1599) | normalised response (CAL-120) | normalised response (CAL-51) | normalised response (MDA-MB-468) | normalised response (MCF-10A) | normalised response (DU-4475) | normalised response (HCC1937) | normalised response (SK-BR-3) | normalised response (Hs578T) | normalised response (HCC1143)
1 | CCN(CC)CCCC(C)Nc1ccnc2cc(Cl)ccc12 (stereo not given) [Chloroquine] (100 nM) | 102% | 103% | 100% | 99.9% | 94.5% | 103% | 88.6% | 91.5% | 96.7% | 46% | 98.8% | 71.1% | 91.7% | 93.7% | 92.9% | 103% | 88.3% | 102% | 103%
2 | CC1(COc2ccc3c(c2)ncn3-c2ccc3cccc(N4CCC(N)CC4)c3n2)COC1 [Crenolanib] (1 nM) | 102% | 97.9% | 99.5% | 102% | 96.6% | 110% | 102% | 90.9% | 98.7% | 105% | 98.5% | 123% | 102% | 116% | 108% | 103% | 106% | 103% | 98.5%
3 | CC(C)(C)c1nc(-c2cccc(NS(=O)(=O)c3c(F)cccc3F)c2F)c(-c2ccnc(N)n2)s1 [Dabrafenib] (0.25 nM) | 104% | 101% | 104% | 98.9% | 103% | 109% | 116% | 104% | 104% | 98.8% | 98.9% | 109% | 99.7% | 109% | 101% | 106% | 108% | 101% | 108%
4 | Cn1cc(C2=C(c3cn(C4CCN(Cc5ccccn5)CC4)c4ccccc34)C(=O)NC2=O)c2ccccc21 [Enzastaurin] (10 nM) | 99.4% | 107% | 104% | 99.6% | 107% | 92.4% | 96.2% | 107% | 104% | 96.3% | 92.7% | 92.2% | 96.5% | 106% | 103% | 95.5% | 104% | 100% | 103%
5 | Cc1nc(C(=O)NCC(=O)O)c(O)c2ccc(Oc3ccccc3)cc12 [FG-4592] (1 nM) | 106% | 96.2% | 102% | 94.7% | 98.9% | 104% | 102% | 109% | 101% | 100% | 98.5% | 89.8% | 98.4% | 111% | 103% | 102% | 111% | 103% | 108%
6 | Cc1nc(C(=O)NCC(=O)O)c(O)c2ccc(Oc3ccccc3)cc12 [FG-4592] (10 nM) | 103% | 95% | 107% | 104% | 101% | 99.1% | 117% | 109% | 101% | 104% | 100% | 90.5% | 97.3% | 111% | 101% | 105% | 109% | 103% | 105%
7 | CC(C)(C)NC(=O)[C@H]1CC[C@H]2[C@@H]3CC[C@H]4NC(=O)C=C[C@]4(C)[C@H]3CC[C@]12C [Finasteride] (10 nM) | 97.3% | 95.9% | 97.8% | 98.3% | 98.7% | 96.4% | 101% | 113% | 104% | 114% | 99.5% | 80.6% | 106% | 104% | 102% | 103% | 121% | 101% | 108%
8 | CC(C)C[C@H](NC(=O)[C@@H](COC(C)(C)C)NC(=O)[C@H](Cc1ccc(O)cc1)NC(=O)[C@H](CO)NC(=O)[C@H](Cc1c[nH]c2ccccc12)NC(=O)[C@H](Cc1cnc[nH]1)NC(=O)[C@@H]1CCC(=O)N1)C(=O)N[C@@H](CCCNC(=N)N)C(=O)N1CCC[C@H]1C(=O)NNC(N)=O [Goserelin] (10 nM) | 101% | 98% | 94.2% | 98% | 93.8% | 99.4% | 94.6% | 102% | 94% | 98.5% | 101% | 92.5% | 96.1% | 102% | 100% | 93.7% | 119% | 99.5% | 99.2%
9 | O=C(O)CNC(=O)c1c(O)c2ccccc2n(Cc2ccccc2)c1=O [IOX-2] (5 nM) | 100% | 95.4% | 92.5% | 99.3% | 95.9% | 95.9% | 94.5% | 104% | 94.5% | 103% | 93.9% | 99.5% | 93.6% | 106% | 97.3% | 95% | 95.3% | 95% | 94.8%
10 | C=CCn1c(=O)c2cnc(Nc3ccc(N4CCN(C)CC4)cc3)nc2n1-c1cccc(C(C)(C)O)n1 [MK1775] (10 nM) | 94.4% | 88.6% | 88.8% | 87.5% | 93.2% | 98.9% | 79.3% | 81% | 90.5% | 107% | 93.1% | 121% | 90.4% | 83% | 93.2% | 94.5% | 76.1% | 101% | 92.4%
11 | CN(C)C(=N)NC(=N)N [Metformin] (10 nM) | 97.7% | 91.7% | 88.1% | 92.3% | 99.6% | 98.3% | 97.7% | 80.5% | 96.5% | 93.1% | 103% | 86.8% | 89.4% | 77% | 87.8% | 90.6% | 76.9% | 93.2% | 98%
12 | CN(Cc1cnc2nc(N)nc(N)c2n1)c1ccc(C(=O)N[C@@H](CCC(=O)O)C(=O)O)cc1 [Methotrexate] (5 nM) | 102% | 97.6% | 108% | 100% | 101% | 117% | 105% | 116% | 109% | 88.1% | 99.5% | 103% | 108% | 107% | 105% | 107% | 118% | 109% | 107%
13 | CN(Cc1cnc2nc(N)nc(N)c2n1)c1ccc(C(=O)N[C@@H](CCC(=O)O)C(=O)O)cc1 [Methotrexate] (50 nM) | 35.5% | 86.1% | 108% | 101% | 76.7% | 100% | 109% | 114% | 100% | 51.9% | 32.5% | 63.7% | 92.8% | 111% | 88.4% | 33% | 74.7% | 47.6% | 84.5%
14 | CO[C@@H]1[C@H](N(C)C(=O)c2ccccc2)C[C@H]2O[C@]1(C)n1c3ccccc3c3c4c(c5c6ccccc6n2c5c31)C(=O)NC4 [Midostaurin] (10 nM) | 97.5% | 104% | 96.7% | 98.6% | 100% | 107% | 105% | 96.7% | 102% | 123% | 96% | 97.2% | 106% | 96.3% | 97.5% | 95.3% | 96.1% | 99.4% | 98.9%
15 | CO[C@@]12[C@H](COC(N)=O)C3=C(C(=O)C(C)=C(N)C3=O)N1C[C@@H]1N[C@@H]12 [Mitomycin C] (10 nM) | 96.7% | 91% | 97.2% | 92.7% | 96.5% | 98.3% | 86.7% | 89% | 97% | 82.3% | 96.9% | 105% | 92.8% | 96.3% | 98.9% | 101% | 94.4% | 98.7% | 96.3%
16 | CCNC(=O)c1noc(-c2cc(C(C)C)c(O)cc2O)c1-c1ccc(CN2CCOCC2)cc1 [NVP-AUY922] (1 nM) | 104% | 104% | 104% | 114% | 105% | 97.2% | 104% | 113% | 103% | 108% | 106% | 106% | 107% | 106% | 105% | 102% | 106% | 101% | 104%
17 | CC1(C)CCC(c2ccc(Cl)cc2)=C(CN2CCN(c3ccc(C(=O)NS(=O)(=O)c4ccc(N[C@H](CCN5CCOCC5)CSc5ccccc5)c(S(=O)(=O)C(F)(F)F)c4)cc3)CC2)C1 [Navitoclax] (10 nM) | 87.5% | 98% | 96.7% | 94.5% | 97% | 99.5% | 90% | 100% | 98.1% | 103% | 91.7% | 115% | 87.6% | 98.6% | 99.4% | 101% | 77.3% | 99.7% | 95.9%
18 | Cc1cn(-c2cc(NC(=O)c3ccc(C)c(Nc4nccc(-c5cccnc5)n4)c3)cc(C(F)(F)F)c2)cn1 [Nilotinib] (10 nM) | 93.5% | 94.1% | 97.3% | 100% | 100% | 103% | 92.7% | 103% | 91.2% | 104% | 88.6% | 85.8% | 98.8% | 104% | 106% | 96.5% | 105% | 94% | 96.5%
19 | CC[C@H](CO)Nc1nc(NCc2ccccc2)c2ncn(C(C)C)c2n1 [Seliciclib] (1 nM) | 102% | 104% | 104% | 100% | 100% | 97.2% | 106% | 104% | 107% | 92.9% | 96.7% | 88.7% | 98% | 97.1% | 106% | 97.3% | 107% | 100% | 101%
20 | C=CCN(/C=C1/C(=O)O[C@H](COC)[C@@]2(C)C1=C(O)C(=O)C1=C2[C@H](OC(C)=O)C[C@]2(C)C(=O)CC[C@@H]12)CC=C [Sonolisib] (1 nM) | 95.6% | 102% | 107% | 107% | 103% | 103% | 110% | 119% | 109% | 116% | 107% | 75.2% | 104% | 108% | 103% | 101% | 109% | 105% | 102%
